The values below come from patent US8399451B2, “Heterocyclic compounds” (Bristol-Myers Squibb Company, priority 2009, dated 2013).

One assay addresses T1, S1P3 (Homo sapiens, UniProt Q99500).
T1 construct: expressed in transfected cells; host or cells: EDG3-Ga15-bla HEK293T cells
Put plainly: Receptor [35S] GTPγS Binding Assay, membranes from EDG3-Ga15-bla HEK293T cells. The class given is biochemical. Conditions: * detection limit 31,000 nM or 62,000 nM. The method, then: (§1) Receptor [35S] GTPγS Binding Assays
(§2) Membranes prepared from S1P1/CHO cells or EDG3-Ga15-bla HEK293T cells were added to the compound plate (40 μl/well, final protein 3 μg/well) with MULTIDROP®. [^35S]GTP (1250 Ci/mmol, Perkin Elmer) was diluted in assay buffer: 20 mM HEPES, pH7.5, 10 mM MgCl2, 150 mM NaCl, 1 mM EGTA, 1 mM DTT, 10 μM GDP, 0.1% fatty acid free BSA, and 10 μg/ml Saponin to 0.4 nM. 40 μl of the [^35S] GTP solution was added to the compound plate with a final concentration of 0.2 nM. […] At the end of incubation, all the mixtures in the compound plate were transferred to a 384 well FB filter plates via GPCR robot system. […] 30 μl of MicroScint 20 scintillation fluid was added to each well for counting at Packard TOPCOUNT®.

Assay [1] has as its target T2, S1P1 (Homo sapiens, UniProt P21453). Put plainly: Receptor [35S] GTPγS Binding Assay, membranes from S1P1/CHO cells. The class given is biochemical. More on the design: expressed in transfected cells; host or cells: S1P1/CHO cells. Conditions: for EC50: membranes from S1P1/CHO cells, read-out: S1P1 GTPγS EC50; for S1P3/S1P1 GTPγS (ratio of S1P3 GTPγS EC50 to S1P1 GTPγS EC50): selectivity ratio calculated from Table B, * may be greater than reported value due to S1P3 assay limits. Here is the method:
as §1, §2

The target in assay [2] is T2, S1P1. In words: S1P1 Binding Assay (33P-S1P radioligand competition, membranes). More on the design: expressed in transfected cells; host or cells: CHO cells. Conditions: membranes from CHO cells expressing human S1P1; 0.03 nM 33P-S1P; rounded to two digits. The method, then:
Membranes were prepared from CHO cells expressing human S1P1. Cells were dissociated in buffer containing 20 mM HEPES, pH 7.5, 50 mM NaCl, 2 mM EDTA and Protease Inhibitor cocktail (Roche), and disrupted on ice using the Polytron homogenizer. The homogenate was centrifuged at 20,000 rpm (48,000 G) and the supernatant was discarded. The membrane pellets were resuspended in buffer containing 50 mM HEPES, pH 7.5, 100 mM NaCl, 1 mM MgCl2, 2 mM EDTA and stored in aliquots at −80° C. after protein concentration determination.
Binding was performed for 45 minutes at room temperature, terminated by collecting the membranes onto GF/B filter plates, and radioactivity was measured by TOPCOUNT®. The competition data of the test compounds over a range of concentrations was plotted as percentage inhibition of radioligand specific binding.
The results in Table A were rounded to two digits.

Structures can show the parent of a compound that is named as a salt.

T1 sequence (Q99500 whole entry): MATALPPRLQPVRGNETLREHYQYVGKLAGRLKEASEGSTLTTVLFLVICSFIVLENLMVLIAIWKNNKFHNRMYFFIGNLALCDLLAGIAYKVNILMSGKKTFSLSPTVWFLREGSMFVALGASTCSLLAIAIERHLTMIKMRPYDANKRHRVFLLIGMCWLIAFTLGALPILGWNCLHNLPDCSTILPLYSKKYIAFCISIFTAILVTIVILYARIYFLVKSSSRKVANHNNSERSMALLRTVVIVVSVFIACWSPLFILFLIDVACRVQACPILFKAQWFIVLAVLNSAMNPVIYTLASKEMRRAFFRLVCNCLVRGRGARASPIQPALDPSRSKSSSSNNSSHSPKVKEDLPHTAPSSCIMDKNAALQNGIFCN
T2 sequence (P21453 whole entry): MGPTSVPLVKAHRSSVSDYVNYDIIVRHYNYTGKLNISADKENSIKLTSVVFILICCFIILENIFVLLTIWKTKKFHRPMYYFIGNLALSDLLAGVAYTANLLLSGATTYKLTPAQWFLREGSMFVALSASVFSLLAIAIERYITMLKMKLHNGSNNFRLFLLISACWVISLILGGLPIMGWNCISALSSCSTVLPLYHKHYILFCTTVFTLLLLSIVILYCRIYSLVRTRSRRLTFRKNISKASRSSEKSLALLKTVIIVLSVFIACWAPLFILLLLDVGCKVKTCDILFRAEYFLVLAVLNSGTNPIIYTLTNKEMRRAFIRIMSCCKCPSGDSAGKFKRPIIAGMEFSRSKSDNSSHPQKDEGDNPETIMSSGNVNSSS

Regarding `O=C(O)C[C@H]1CCCN(C[C@@H](O)c2ccc(-c3noc(-c4cnn(-c5ccc(Cl)cn5)c4C(F)(F)F)n3)cc2)C1` [Example 70, 2-((R)-1-((S)-2-(4-(5-(1-(5-chloropyridin-2-yl)-5-(trifluoromethyl)-1H-pyrazol-4-yl)-1,2,4-oxadiazol-3-yl)phenyl)-2-hydroxyethyl)piperidin-3-yl)acetic acid, HCl], the EC50 (commonly the concentration needed to bring the measured effect to its halfway point) worked out at 10400 nM at S1P3 and 1.2 nM on S1P1 [1]. Moreover, the “S1P3/S1P1 GTPγS (ratio of S1P3 GTPγS EC50 to S1P1 GTPγS EC50)” value on S1P1 [1] is given as 8800.
As to `O=C(O)C[C@H]1CCCN(C[C@@H](O)c2ccc(-c3noc(-c4ncn(-c5ccc(Cl)cc5)c4C(F)(F)F)n3)cc2)C1` [Example 117, 2-((R)-1-((S)-2-(4-(5-(1-(4-Chlorophenyl)-5-(trifluoromethyl)-1H-imidazol-4-yl)-1,2,4-oxadiazol-3-yl)phenyl)-2-hydroxyethyl)piperidin-3-yl)acetic acid], the EC50 was > 62000 nM on S1P3 and 26 nM at S1P1 [1]. On S1P1 [1], the “S1P3/S1P1 GTPγS (ratio of S1P3 GTPγS EC50 to S1P1 GTPγS EC50)” value is listed as ≥ 2400*.
On the same counts, the results for `O=C(O)[C@H]1CCCN(C[C@@H](O)c2ccc(-c3noc(-c4cnn(-c5ncc(Cl)cc5Cl)c4C(F)(F)F)n3)cc2)C1` [Example 100, (S)-1-((S)-2-(4-(5-(1-(3,5-dichloropyridin-2-yl)-5-(trifluoromethyl)-1H-pyrazol-4-yl)-1,2,4-oxadiazol-3-yl)phenyl)-2-hydroxyethyl) piperidine-3-carboxylic acid, HCl] are > 31000 nM, 6.8 nM and ≥ 4580*.
On the same counts, the results for `O=C(O)[C@H]1CCCN(CC(O)c2ccc(-c3noc(-c4cc(-c5ccc(Cl)cc5)on4)n3)cc2)C1` (stereo partly drawn) [Example 53, (3S)-1-(2-(4-(5-(5-(4-chlorophenyl)isoxazol-3-yl)-1,2,4-oxadiazol-3-yl)phenyl)-2-hydroxyethyl)piperidine-3-carboxylic acid] are > 31000 nM, 1900 nM and ≥ 16*.
On the same counts, the results for `O=C(O)[C@H]1CCCN(CC(O)c2ccc(-c3noc(-c4ccc(-c5ccccn5)s4)n3)cc2)C1` (stereo partly drawn) [Example 43, (3S)-1-(2-hydroxy-2-(4-(5-(5-(pyridin-2-yl)thiophen-2-yl)-1,2,4-oxadiazol-3-yl)phenyl)ethyl)piperidine-3-carboxylic acid] are > 62000 nM, 360 nM and ≥ 170*.
Regarding `O=C(O)[C@H]1CCCN(C[C@@H](O)c2ccc(-c3noc(-c4cnn(-c5ccccn5)c4C(F)(F)F)n3)cc2)C1` [Example 104, (S)-1-((S)-2-hydroxy-2-(4-(5-(1-(pyridin-2-yl)-5-(trifluoromethyl)-1H-pyrazol-4-yl)-1,2,4-oxadiazol-3-yl)phenyl)ethyl)pipcridine-3-carboxylic acid], the EC50 is > 31000 nM at S1P3 and 4.5 nM on S1P1 [1]. For the same molecule, the “S1P3/S1P1 GTPγS (ratio of S1P3 GTPγS EC50 to S1P1 GTPγS EC50)” value at S1P1 [1] was ≥ 6900*.
`CCCc1c(-c2nc(-c3ccc(C(O)CN4CCOC(C(=O)O)C4)cc3)no2)noc1-c1ccccc1` (stereo not shown) [Example 11, 4-(2-Hydroxy-2-(4-(5-(5-phenyl-4-propylisoxazol-3-yl)-1,2,4-oxadiazol-3-yl)phenyl)ethyl)morpholine-2-carboxylic acid]: at S1P1 [2], the half-inhibitory concentration (IC50) (as a rule, the point on the concentration scale where inhibition reaches its midpoint) was found to be 4.8 nM.
In the case of `Cl.O=C(O)C[C@H]1CCCN(C[C@@H](O)c2ccc(-c3noc(-c4cnn(-c5ccc(F)cn5)c4C(F)(F)F)n3)cc2)C1` [Example 82, 2-((R)-1-((S)-2-(4-(5-(1-(5-fluoropyridin-2-yl)-5-(trifluoromethyl)-1H-pyrazol-4-yl)-1,2,4-oxadiazol-3-yl)phenyl)-2-hydroxyethyl)piperidin-3-yl)acetic acid, HCl], the EC50 on S1P3 was 6090 nM. At S1P1 [1], the 50% effective concentration (EC50) amounted to 3 nM and the “S1P3/S1P1 GTPγS (ratio of S1P3 GTPγS EC50 to S1P1 GTPγS EC50)” value is 2050.
Taken in the same sequence, the figures for `O=C(O)[C@H]1CCCN(C[C@@H](O)c2ccc(-c3noc(-c4cnn(C5CCCCC5)c4C(F)(F)F)n3)cc2)C1` [Example 106, (S)-1-((S)-2-(4-(5-(1-cyclohcxyl-5-(trifluoromethyl)-1H-pyrazol-4-yl)-1,2,4-oxadiazol-3-yl)phenyl)-2-hydroxyethyl) piperidine-3-carboxylic acid] were 2250 nM, 1 nM and 2250.
On the same counts, the results for `O=C(O)[C@H]1CCCN(C[C@@H](O)c2ccc(-c3noc(-c4cnn(-c5ccc(C(F)(F)F)cn5)c4C(F)(F)F)n3)cc2)C1` [Example 98, (S)-1-((S)-2-hydroxy-2-(4-(5-(5-(trifluoromethyl)-1-(5-(trifluoromethyl)pyridin-2-yl)-1H-pyrazol-4-yl)-1,2,4-oxadiazol-3-yl)phenyl)ethyl)piperidine-3-carboxylic acid, HCl] are 3300 nM, 3 nM and 1100.
On the same counts, the results for `O=C(O)C[C@H]1CCCN(C[C@@H](O)c2ccc(-c3noc(-c4cnn(C5CCCCC5)c4C(F)(F)F)n3)cc2)C1` [Example 59, 2-((R)-1-((S)-2-(4-(5-(1-cyclohexyl-5-(trifluoromethyl)-1H-pyrazol-4-yl)-1,2,4-oxadiazol-3-yl)phenyl)-2-hydroxyethyl)piperidin-3-yl)acetic acid, HCl] are 2080 nM, 1.8 nM and 1160.
For the molecule `O=C(O)C[C@H]1CCCN(C[C@@H](O)c2ccc(-c3noc(-c4cnn(-c5ccccc5Cl)c4C(F)(F)F)n3)cc2)C1` [Example 72, 2-((3R)-1-((2S)-2-(4-(5-(1-(2-chlorophenyl)-5-(trifluoromethyl)-1H-pyrazol-4-yl)-1,2,4-oxadiazol-3-yl)phenyl)-2-hydroxyethyl)piperidin-3-yl)acetic acid, HCl], the EC50 was determined as 24800 nM at S1P3 and 3.6 nM at S1P1 [1]. At S1P1 [1], the “S1P3/S1P1 GTPγS (ratio of S1P3 GTPγS EC50 to S1P1 GTPγS EC50)” value is 6900.
Taken in the same sequence, the figures for `Cc1cccc(-c2noc(-c3nc(-c4ccc(C(O)CN5CCC[C@H](C(=O)O)C5)cc4)no3)c2C(F)(F)F)n1` (stereo partly drawn) [Example 37, (3S)-1-(2-Hydroxy-2-(4-(5-(3-(6-methylpyridin-2-yl)-4-(trifluoromethyl)isoxazol-5-yl)-1,2,4-oxadiazol-3-yl)phenyl)ethyl)piperidine-3-carboxylic acid] were > 62000 nM, 69 nM and ≥ 910*.
Taken in the same sequence, the figures for `O=C(O)C[C@H]1CCCN(C[C@@H](O)c2ccc(-c3noc(-c4cnn(-c5ccc(F)cc5F)c4C(F)(F)F)n3)cc2)C1` [Example 73, 2-((3R)-1-((2S)-2-(4-(5-(1-(2,4-difluorophenyl)-5-(trifluoromethyl)-1H-pyrazol-4-yl)-1,2,4-oxadiazol-3-yl)phenyl)-2-hydroxyethyl)piperidin-3-yl)acetic acid, HCl] were 2200 nM, 2.1 nM and 1030.
On the same counts, the results for `Cc1nc(-c2ccccc2)sc1-c1nc(-c2ccc(C(O)CN3CCC[C@H](C(=O)O)C3)cc2)no1` (stereo partly drawn) [Example 46, (3S)-1-(2-hydroxy-2-(4-(5-(4-methyl-2-phenylthiazol-5-yl)-1,2,4-oxadiazol-3-yl)phenyl)ethyl)piperidine-3-carboxylic acid] are 8100 nM, 630 nM and 13.
At S1P3, `O=C(O)[C@H]1CCCCN1CC(O)c1ccc(-c2noc(-c3onc(-c4ccccc4)c3C(F)(F)F)n2)cc1` (stereo partly drawn) [Example 41, (2R)-1-(2-Hydroxy-2-(4-(5-(3-phenyl-4-(trifluoromethyl)isoxazol-5-yl)-1,2,4-oxadiazol-3-yl)phenyl)ethyl)piperidine-2-carboxylic acid] showed a 50% effective concentration (EC50) of 7500 nM. For the same molecule, on S1P1 [1], the EC50 came out at 5.4 nM and the “S1P3/S1P1 GTPγS (ratio of S1P3 GTPγS EC50 to S1P1 GTPγS EC50)” value is listed as 1400.
Taken in the same sequence, the figures for `Cc1ccc(-n2ncc(-c3nc(-c4ccc([C@H](O)CN5CCC[C@H](CC(=O)O)C5)cc4)no3)c2C(F)(F)F)nc1` [Example 94, 2-((R)-1-((S)-2-hydroxy-2-(4-(5-(1-(5-methylpyridin-2-yl)-5-(trifluoromethyl)-1H-pyrazol-4-yl)-1,2,4-oxadiazol-3-yl)phenyl)ethyl)piperidin-3-yl)acetic acid] were 6300 nM, 8.6 nM and 730.
